Data taken from US12509457B2, “Bicyclic nitrogen containing heterocycles as inhibitors of salt-induced kinase SIK2” (priority 2019, dated 2025).
Read-outs that look alike come from different tables or passages of the source.

Legend:
Type in all cases: biochemical
SIK2 = SIK2 (Homo sapiens, UniProt Q9H0K1); assay: SIK2 kinase assay, IMAP fluorescence polarization; conditions: 50 or 100 μM ATP; average; read-out: SIK2-AVERAGE Ki
Abl = Abl (Homo sapiens, UniProt P00519); assay: Abl kinase assay, IMAP fluorescence polarization; conditions: 50 or 100 μM ATP; average; read-out: Abl-AVERAGE Ki
SIK1 = SIK1 (Homo sapiens, UniProt P57059); assay: SIK1 kinase assay, IMAP fluorescence polarization; conditions: 50 or 100 μM ATP; average; read-out: SIK1-AVERAGE Ki
EPHA2 = EPHA2 (Homo sapiens, UniProt P29317); assay: EPHA2 kinase assay, IMAP fluorescence polarization
SIK3 = SIK3 (Homo sapiens, UniProt Q9Y2K2); assay: SIK3 kinase assay, IMAP fluorescence polarization; conditions: 50 or 100 μM ATP; average; read-out: SIK3-AVERAGE Ki
Src = Src (Homo sapiens, UniProt P12931); assay: Src kinase assay, IMAP fluorescence polarization; conditions: 50 or 100 μM ATP; average; read-out: Src-AVERAGE Ki
Sequence of Src (P12931 whole entry): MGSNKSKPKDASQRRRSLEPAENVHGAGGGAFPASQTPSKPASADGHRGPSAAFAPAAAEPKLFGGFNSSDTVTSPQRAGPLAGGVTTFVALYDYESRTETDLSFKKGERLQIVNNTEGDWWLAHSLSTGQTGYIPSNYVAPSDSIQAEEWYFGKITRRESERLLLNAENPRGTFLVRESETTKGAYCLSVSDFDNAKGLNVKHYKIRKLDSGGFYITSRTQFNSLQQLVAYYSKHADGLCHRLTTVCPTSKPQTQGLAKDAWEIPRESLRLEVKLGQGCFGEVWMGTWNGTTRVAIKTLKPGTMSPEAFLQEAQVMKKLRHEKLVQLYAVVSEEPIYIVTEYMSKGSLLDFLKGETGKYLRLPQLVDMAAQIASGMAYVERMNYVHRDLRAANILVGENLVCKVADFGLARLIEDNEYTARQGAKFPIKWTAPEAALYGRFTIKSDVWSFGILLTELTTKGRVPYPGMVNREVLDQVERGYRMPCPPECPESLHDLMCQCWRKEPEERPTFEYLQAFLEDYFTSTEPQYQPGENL

Sequence of Abl (P00519 whole entry): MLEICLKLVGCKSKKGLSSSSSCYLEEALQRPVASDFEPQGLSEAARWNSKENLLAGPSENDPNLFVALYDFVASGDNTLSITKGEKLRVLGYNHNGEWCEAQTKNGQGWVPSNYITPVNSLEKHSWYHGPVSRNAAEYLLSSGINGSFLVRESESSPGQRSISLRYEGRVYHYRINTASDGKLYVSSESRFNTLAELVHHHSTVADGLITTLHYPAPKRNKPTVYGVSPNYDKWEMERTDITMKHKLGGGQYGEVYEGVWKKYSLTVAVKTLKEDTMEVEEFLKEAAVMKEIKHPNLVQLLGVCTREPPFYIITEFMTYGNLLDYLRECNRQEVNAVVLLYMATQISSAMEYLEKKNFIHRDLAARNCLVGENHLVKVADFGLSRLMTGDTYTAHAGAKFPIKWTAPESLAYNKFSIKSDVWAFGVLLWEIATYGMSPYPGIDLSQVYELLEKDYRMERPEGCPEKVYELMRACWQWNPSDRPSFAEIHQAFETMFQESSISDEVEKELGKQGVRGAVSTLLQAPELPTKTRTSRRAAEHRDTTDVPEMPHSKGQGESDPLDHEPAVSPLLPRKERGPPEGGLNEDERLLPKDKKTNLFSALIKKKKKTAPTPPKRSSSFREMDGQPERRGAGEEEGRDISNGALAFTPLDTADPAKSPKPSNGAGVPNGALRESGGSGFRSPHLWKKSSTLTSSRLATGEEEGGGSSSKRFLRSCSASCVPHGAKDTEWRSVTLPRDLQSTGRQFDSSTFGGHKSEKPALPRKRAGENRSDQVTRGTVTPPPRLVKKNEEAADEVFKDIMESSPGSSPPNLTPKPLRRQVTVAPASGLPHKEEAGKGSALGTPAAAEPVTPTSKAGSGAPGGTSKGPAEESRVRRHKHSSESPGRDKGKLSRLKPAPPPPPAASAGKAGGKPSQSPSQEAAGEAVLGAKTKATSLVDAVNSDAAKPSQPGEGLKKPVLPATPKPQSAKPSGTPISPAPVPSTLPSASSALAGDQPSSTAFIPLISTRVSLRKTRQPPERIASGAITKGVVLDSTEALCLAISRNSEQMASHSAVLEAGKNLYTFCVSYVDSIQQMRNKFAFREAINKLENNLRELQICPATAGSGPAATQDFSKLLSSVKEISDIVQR
Sequence of SIK1 (P57059 whole entry): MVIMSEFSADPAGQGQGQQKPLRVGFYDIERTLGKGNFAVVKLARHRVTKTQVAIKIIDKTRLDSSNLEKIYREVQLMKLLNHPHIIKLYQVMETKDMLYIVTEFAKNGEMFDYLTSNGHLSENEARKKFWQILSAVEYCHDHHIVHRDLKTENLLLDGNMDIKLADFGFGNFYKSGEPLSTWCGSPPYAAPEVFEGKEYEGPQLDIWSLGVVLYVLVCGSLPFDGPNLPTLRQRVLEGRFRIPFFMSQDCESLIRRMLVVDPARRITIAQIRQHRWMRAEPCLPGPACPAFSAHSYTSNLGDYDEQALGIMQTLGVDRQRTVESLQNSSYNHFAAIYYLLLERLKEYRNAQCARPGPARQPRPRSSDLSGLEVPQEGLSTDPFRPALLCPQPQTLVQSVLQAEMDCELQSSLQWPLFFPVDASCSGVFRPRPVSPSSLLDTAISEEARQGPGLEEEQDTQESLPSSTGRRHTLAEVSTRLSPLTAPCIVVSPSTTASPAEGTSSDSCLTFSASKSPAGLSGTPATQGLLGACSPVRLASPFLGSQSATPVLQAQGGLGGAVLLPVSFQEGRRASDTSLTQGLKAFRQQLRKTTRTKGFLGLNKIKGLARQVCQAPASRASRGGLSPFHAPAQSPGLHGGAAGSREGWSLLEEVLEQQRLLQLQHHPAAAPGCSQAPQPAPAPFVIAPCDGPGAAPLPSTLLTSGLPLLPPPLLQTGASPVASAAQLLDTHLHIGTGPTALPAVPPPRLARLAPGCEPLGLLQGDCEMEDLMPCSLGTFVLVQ
Sequence of SIK2 (Q9H0K1 whole entry): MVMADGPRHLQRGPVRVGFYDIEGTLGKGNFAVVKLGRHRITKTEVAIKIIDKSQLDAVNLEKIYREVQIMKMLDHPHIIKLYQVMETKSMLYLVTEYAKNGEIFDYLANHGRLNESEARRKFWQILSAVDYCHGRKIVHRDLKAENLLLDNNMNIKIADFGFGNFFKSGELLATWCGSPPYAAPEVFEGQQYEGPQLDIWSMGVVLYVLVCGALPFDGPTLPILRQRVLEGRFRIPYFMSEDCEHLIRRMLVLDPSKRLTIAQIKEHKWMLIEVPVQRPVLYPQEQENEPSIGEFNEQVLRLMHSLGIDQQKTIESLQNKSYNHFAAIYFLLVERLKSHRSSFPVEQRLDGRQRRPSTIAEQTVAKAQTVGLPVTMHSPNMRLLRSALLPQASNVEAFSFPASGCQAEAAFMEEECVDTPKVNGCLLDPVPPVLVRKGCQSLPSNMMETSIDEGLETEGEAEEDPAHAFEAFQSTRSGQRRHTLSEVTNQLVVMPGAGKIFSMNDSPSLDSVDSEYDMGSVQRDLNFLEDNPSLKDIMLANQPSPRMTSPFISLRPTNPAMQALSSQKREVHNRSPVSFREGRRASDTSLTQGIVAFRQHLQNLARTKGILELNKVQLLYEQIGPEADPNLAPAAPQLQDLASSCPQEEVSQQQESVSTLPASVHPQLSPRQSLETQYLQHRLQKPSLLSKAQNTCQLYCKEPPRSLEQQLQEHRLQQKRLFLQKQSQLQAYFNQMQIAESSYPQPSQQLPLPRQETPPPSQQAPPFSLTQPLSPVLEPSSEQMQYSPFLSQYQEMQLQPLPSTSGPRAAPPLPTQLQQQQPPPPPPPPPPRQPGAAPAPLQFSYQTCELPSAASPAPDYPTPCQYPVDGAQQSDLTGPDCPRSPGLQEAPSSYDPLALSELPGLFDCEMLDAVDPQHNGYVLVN
Sequence of EPHA2 (P29317 24-976): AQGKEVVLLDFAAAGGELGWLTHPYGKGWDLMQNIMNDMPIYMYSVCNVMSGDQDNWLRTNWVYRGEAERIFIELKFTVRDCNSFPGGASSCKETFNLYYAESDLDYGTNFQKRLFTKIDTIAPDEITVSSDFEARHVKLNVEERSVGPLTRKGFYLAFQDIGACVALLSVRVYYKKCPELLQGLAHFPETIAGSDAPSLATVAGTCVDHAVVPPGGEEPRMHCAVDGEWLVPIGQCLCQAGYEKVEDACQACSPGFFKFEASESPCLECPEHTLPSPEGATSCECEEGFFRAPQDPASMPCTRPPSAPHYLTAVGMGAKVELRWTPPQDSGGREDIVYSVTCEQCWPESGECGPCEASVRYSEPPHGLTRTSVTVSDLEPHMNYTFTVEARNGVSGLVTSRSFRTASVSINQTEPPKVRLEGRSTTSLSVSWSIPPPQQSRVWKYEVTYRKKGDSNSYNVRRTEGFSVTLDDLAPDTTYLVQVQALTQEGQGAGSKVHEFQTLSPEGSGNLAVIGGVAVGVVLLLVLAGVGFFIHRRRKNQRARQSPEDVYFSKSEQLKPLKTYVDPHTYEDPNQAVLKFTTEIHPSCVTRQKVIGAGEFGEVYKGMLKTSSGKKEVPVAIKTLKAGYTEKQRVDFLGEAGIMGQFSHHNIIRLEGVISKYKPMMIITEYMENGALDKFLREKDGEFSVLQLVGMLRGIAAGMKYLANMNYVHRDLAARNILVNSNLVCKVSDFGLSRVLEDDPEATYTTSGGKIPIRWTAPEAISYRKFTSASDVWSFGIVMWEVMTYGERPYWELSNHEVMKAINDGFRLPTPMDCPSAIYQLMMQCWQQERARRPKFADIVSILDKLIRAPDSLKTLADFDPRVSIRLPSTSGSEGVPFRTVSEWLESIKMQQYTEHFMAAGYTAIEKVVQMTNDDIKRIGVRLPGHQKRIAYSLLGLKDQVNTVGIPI

Ki (SIK2) [nM]	Ki (Abl) [nM]	Ki (SIK1) [nM]	Ki (EPHA2; 50 or 100 μM ATP, average) [nM]	Ki (SIK3) [nM]	Ki (Src) [nM]	Ki (EPHA2) [nM]	SMILES
0.232	43	0.384	84.4	1.19	163		Cc1cccc(F)c1N1Cc2cnc(N)cc2N([C@H]2CC[C@@H](N(C)C)CC2)C1=O [Example 46, cis-7-Amino-1-[4-(dimethylamino)cyclohexyl]-3-(2-fluoro-6-methyl-phenyl)-4H-pyrido[4,3-d]pyrimidin-2-one]
0.205	4.22	0.612	9.16	1.18	29.2		Cc1cccc(F)c1N1Cc2cnc(N)nc2N(C2CCC(N)C2)C1=O (stereo not drawn) [Example 76, 7-amino-1-(3-aminocyclopentyl)-3-(2-fluoro-6-methyl-phenyl)-4H-pyrimido[4,5-d]pyrimidin-2-one]
4.79	522	8.28		62.6	> 10000	228	Cc1cccc(F)c1N1Cc2cnc(N)nc2N([C@@H]2CCN(C)C2)C1=O [Example 31, 7-amino-3-(2-fluoro-6-methyl-phenyl)-1-[(3R)-1-methylpyrrolidin-3-yl]-4H-pyrimido[4,5-d]pyrimidin-2-one]
0.14	14.9	0.467	32.5	0.302	126		Cc1cccc(F)c1N1Cc2cnc(N)cc2N([C@@H]2CCCN(C)CC2)C1=O [Example 84, 7-amino-3-(2-fluoro-6-methyl-phenyl)-1-[(4R)-1-methylazepan-4-yl]-4H-pyrido[4,3-d]pyrimidin-2-one]
13.7	> 10000	47.4	388	47.9	2560		Cc1cccc(F)c1N1Cc2cnc(N)nc2N(C2CN(C)C2)C1=O [Example 21, 7-amino-3-(2-fluoro-6-methyl-phenyl)-1-(1-methylazetidin-3-yl)-4H-pyrimido[4,5-d]pyrimidin-2-one]
0.374	33.6	0.733		1.48	138	29.6	Cc1cccc(F)c1N1Cc2cnc(N)nc2N([C@@H]2CCCN(C)CC2)C1=O [Example 34, 7-amino-3-(2-fluoro-6-methyl-phenyl)-1[(4R)-1-methylazepan-4-yl]-4H-pyrimido[4,5-d]pyrimidin-2-one]
0.0997	19.7	0.407	14.7	0.926	44.2		Cc1cccc(F)c1N1Cc2cnc(N)nc2N([C@H]2CCCNCC2)C1=O [Example 69, 7-amino-1-[(4S)-azepan-4-yl]-3-(2-fluoro-6-methyl-phenyl)-4H-pyrimido[4,5-d]pyrimidin-2-one]
0.703	53.2	2.5	25.8	6.65	80.5		Cc1cccc(F)c1N1Cc2cnc(N)nc2N([C@H]2CCCN(C)C2)C1=O [Example 37, 7-amino-3-(2-fluoro-6-methyl-phenyl)-1-[(3S)-1-methyl-3-piperidyl]-4H-pyrimido[4,5-d]pyrimidin-2-one]
1.77	36.4	9.71	371	10.9	400		Cc1cccc(F)c1N1Cc2cnc(N)nc2N(C2CNC2)C1=O [Example 13, 7-Amino-1-(azetidin-3-yl)-3-(2-fluoro-6-methyl-phenyl)-4H-pyrimido[4,5-d]pyrimidin-2-one]
0.19	3.28	0.604	42.3	1.46	18.9		Cc1cccc(F)c1N1Cc2cnc(N)cc2N([C@H]2CCC[C@@H](N)C2)C1=O (relative stereo) [Example 56, 7-amino-1-[(cis)-3-aminocyclohexyl]-3-(2-fluoro-6-methyl-phenyl)-4H-pyrido[4,3-d]pyrimidin-2-one]
14.8	> 1000	66.9	> 1000	177	> 1000		CNc1cc2c(cn1)CN(c1c(C)cccc1F)C(=O)N2C1CN(C)C1 [Example 10, 3-(2-Fluoro-6-methyl-phenyl)-7-(methylamino)-1-(1-methylazetidin-3-yl)-4H-pyrido[4,3-d]pyrimidin-2-one]
0.209	13.8	0.681	9.26	3.04	11.6		Cc1cccc(F)c1N1Cc2cnc(N)nc2N(C2CCCC(N)C2)C1=O (stereo not drawn) [Example 75, 7-amino-1-(3-aminocyclohexyl)-3-(2-fluoro-6-methyl-phenyl)-4H-pyrimido[4,5-d]pyrimidin-2-one]
6.5	488	9.67		85.4	> 10000	164	Cc1cccc(F)c1N1Cc2cnc(N)cc2N([C@H]2CCN(C)C2)C1=O [Example 79, 7-amino-3-(2-fluoro-6-methyl-phenyl)-1-[(3S)-1-methylpyrrolidin-3-yl]-4H-pyrido[4,3-d]pyrimidin-2-one]
0.383	105	1.17		2.12	287	38.7	Cc1cccc(F)c1N1Cc2cnc(N)nc2N([C@H]2CCCN(C)CC2)C1=O [Example 35, 7-amino-3-(2-fluoro-6-methyl-phenyl)-1-[(4S)-1-methylazepan-4-yl]-4H-pyrimido[4,5-d]pyrimidin-2-one]
